Here are results for 18 compounds from ChEMBL document CHEMBL3045399, “A novel series of homoallylic amines as potential antimicrobials” (2012).

Structures are written as SMILES. ≈ marks a conversion by molar mass, not a printed value. Calls of active or inactive are those of the source.

Assay [1] has as its system Escherichia coli. The experiment in a line: Antimicrobial activity against Escherichia coli after 16 hr by serial dilution method. In kind it is functional.
In assay [2] the test system is Staphylococcus aureus. The experiment in a line: Antimicrobial activity against Staphylococcus aureus after 16 hr by serial dilution method. The format is functional.
Assay [3] deals with Pseudomonas aeruginosa. The experiment in a line: Antimicrobial activity against Pseudomonas aeruginosa after 16 hr by serial dilution method. The format is functional.
Assay [4] has as its system Bacillus subtilis. As to the kind of experiment: Antimicrobial activity against Bacillus subtilis after 16 hr by serial dilution method. The format is functional.
Assay [5] concerns Pseudomonas aeruginosa. The experiment in a line: Antimicrobial activity against Pseudomonas aeruginosa at 1.6125 to 50 ug/ml after 16 hr by serial dilution method. The format is functional, organism-based.
In assay [6] the test system is Escherichia coli. As to the kind of experiment: Antimicrobial activity against Escherichia coli at 1.6125 to 50 ug/ml after 16 hr by serial dilution method. In kind it is functional, organism-based.
Assay [7] has as its system Staphylococcus aureus. As to the kind of experiment: Antimicrobial activity against Staphylococcus aureus at 1.6125 to 50 ug/ml after 16 hr by serial dilution method. In kind it is functional, organism-based.
Assay [8] concerns Bacillus subtilis. The experiment in a line: Antimicrobial activity against Bacillus subtilis at 1.6125 to 50 ug/ml after 16 hr by serial dilution method. The format is functional, organism-based.

What is called MIC is the smallest concentration in the dilution series that meets the test's criterion for growth inhibition.

For `C=CCC(Nc1cccc2ncsc12)c1cn(C(C)=O)c2ccccc12` (configuration not stated), the MIC in the assay on Escherichia coli [1], against Staphylococcus aureus [2], in the assay on Pseudomonas aeruginosa [3] and against Bacillus subtilis [4] was 12.5 µg/mL (≈ 34.6 µM) throughout.
As to `C=CCC(NCc1ccc(F)c(F)c1)c1cc2ccccc2o1` (configuration not stated), the MIC worked out at 3.12 µg/mL (≈ 9.97 µM) with Escherichia coli [1], 1.61 µg/mL (≈ 5.15 µM) in the assay on Staphylococcus aureus [2], 3.12 µg/mL (≈ 9.97 µM) against Pseudomonas aeruginosa [3] and 3.12 µg/mL (≈ 9.97 µM) with Bacillus subtilis [4].
As for `C=CCC(Nc1ccc(F)cc1F)c1ccc(F)cc1F` (configuration not stated), the MIC against Escherichia coli [1], with Staphylococcus aureus [2], in the assay on Pseudomonas aeruginosa [3] and against Bacillus subtilis [4] was 1.61 µg/mL (≈ 5.46 µM) throughout.
As for `C=CCC(Nc1ccc(Oc2ccc(Cl)cc2)cc1)c1ccc(-c2ccccc2Cl)o1` (configuration not stated), the MIC with Escherichia coli [1], against Staphylococcus aureus [2], with Pseudomonas aeruginosa [3] and against Bacillus subtilis [4] was 3.12 µg/mL (≈ 6.94 µM) in each case.
Take `C=CCC(Nc1ccc(F)c(C(F)(F)F)c1)C1CC1` (configuration not stated): the outcome in the assay on Pseudomonas aeruginosa [5] and in the assay on Escherichia coli [6] was inactive. For the same compound, the MIC with Staphylococcus aureus [2] and in the assay on Bacillus subtilis [4] was 1.61 µg/mL (≈ 5.9 µM) in each case.
With `C=CCC(Nc1cccc2ccccc12)c1ccccc1` (configuration not stated), the MIC in the assay on Escherichia coli [1], against Staphylococcus aureus [2], against Pseudomonas aeruginosa [3] and against Bacillus subtilis [4] was 25 µg/mL (≈ 91.4 µM) in each case.
As for `C=CCC(Nc1cc(C)ccc1C)C1CCCCC1` (configuration not stated), the MIC was 12.5 µg/mL (≈ 48.6 µM) against Escherichia coli [1], 6.25 µg/mL (≈ 24.3 µM) in the assay on Staphylococcus aureus [2], 12.5 µg/mL (≈ 48.6 µM) against Pseudomonas aeruginosa [3] and 12.5 µg/mL (≈ 48.6 µM) against Bacillus subtilis [4].
For `CO/N=C(\C(=O)N[C@@H]1C(=O)N2C(C(=O)O)=C(CSc3nc(=O)c(O)nn3C)CS[C@H]12)c1csc(N)n1` [CEFTRIAXONE], the MIC worked out at 1.61 µg/mL (≈ 2.91 µM) against Escherichia coli [1], 3.12 µg/mL (≈ 5.63 µM) with Staphylococcus aureus [2], 1.61 µg/mL (≈ 2.91 µM) in the assay on Pseudomonas aeruginosa [3] and 1.61 µg/mL (≈ 2.91 µM) in the assay with Bacillus subtilis [4].
`C=CCC(Nc1ccc(N2CCOCC2)cc1)C1CCCCC1` (configuration not stated): the MIC with Escherichia coli [1] is 6.25 µg/mL (≈ 19.9 µM); in the assay on Staphylococcus aureus [2], 6.25 µg/mL (≈ 19.9 µM); in the assay with Pseudomonas aeruginosa [3], 25 µg/mL (≈ 79.5 µM); in the assay on Bacillus subtilis [4] it was 6.25 µg/mL (≈ 19.9 µM).
With `C=CCC(Nc1ccc(F)cc1)c1cccc(OCC)c1` (configuration not stated), the MIC in the assay with Escherichia coli [1], against Staphylococcus aureus [2], in the assay on Pseudomonas aeruginosa [3] and against Bacillus subtilis [4] was 3.12 µg/mL (≈ 11 µM) throughout.
Consider `C=CCC(Nc1ccc(C(C)(C)C)cc1)C1CC1` (configuration not stated), for which the result in the assay with Staphylococcus aureus [7], in the assay on Pseudomonas aeruginosa [5], in the assay on Bacillus subtilis [8] and in the assay on Escherichia coli [6] was inactive.
Regarding `C=CCC(Nc1cccc(F)c1)c1cc(OC)ccc1F` (configuration not stated), the MIC in the assay with Escherichia coli [1], against Staphylococcus aureus [2], in the assay with Pseudomonas aeruginosa [3] and against Bacillus subtilis [4] was 1.61 µg/mL (≈ 5.58 µM) in each case.
As for `C=CCC(Nc1cc(F)c(F)cc1F)c1ccc(F)cc1F` (configuration not stated), the MIC with Escherichia coli [1], against Staphylococcus aureus [2], against Pseudomonas aeruginosa [3] and in the assay with Bacillus subtilis [4] was 1.61 µg/mL (≈ 5.15 µM) in each case.
With `C=CCC(Nc1ccc(C#N)cc1)c1ccsc1` (configuration not stated), the MIC came out at 3.12 µg/mL (≈ 12.3 µM) with Escherichia coli [1], 6.25 µg/mL (≈ 24.6 µM) against Staphylococcus aureus [2], 6.25 µg/mL (≈ 24.6 µM) with Pseudomonas aeruginosa [3] and 6.25 µg/mL (≈ 24.6 µM) against Bacillus subtilis [4].
Regarding `C=CCC(Nc1cccc2ccccc12)c1cc2ccccc2o1` (configuration not stated), the MIC turned out to be 25 µg/mL (≈ 79.8 µM) in the assay with Escherichia coli [1], 1.61 µg/mL (≈ 5.15 µM) in the assay with Staphylococcus aureus [2] and 1.61 µg/mL (≈ 5.15 µM) in the assay with Bacillus subtilis [4]. Further, the result in the assay on Pseudomonas aeruginosa [5] was inactive.
Take `C=CCOc1ccccc1C(CC=C)Nc1ccc(Oc2ccc(Cl)cc2)cc1` (configuration not stated): the MIC stood at 6.25 µg/mL (≈ 15.4 µM) against Escherichia coli [1], 3.12 µg/mL (≈ 7.7 µM) against Staphylococcus aureus [2], 25 µg/mL (≈ 61.6 µM) with Pseudomonas aeruginosa [3] and 3.12 µg/mL (≈ 7.7 µM) in the assay on Bacillus subtilis [4].
On to `C=CCC(Nc1ccc(C(C)(C)C)cc1)c1ccc(F)cc1F` (configuration not stated), for which the MIC against Escherichia coli [1], in the assay with Staphylococcus aureus [2], against Pseudomonas aeruginosa [3] and against Bacillus subtilis [4] was 3.12 µg/mL (≈ 9.91 µM) throughout.
As for `C=CCC(Nc1ccc(Cl)cc1F)c1c(F)cccc1F` (configuration not stated), the MIC was determined as 1.61 µg/mL (≈ 5.17 µM) against Escherichia coli [1], 3.12 µg/mL (≈ 10 µM) against Staphylococcus aureus [2], 1.61 µg/mL (≈ 5.17 µM) in the assay on Pseudomonas aeruginosa [3] and 1.61 µg/mL (≈ 5.17 µM) in the assay on Bacillus subtilis [4].
